The source made the active and inactive calls.
What was measured:
[1] = target: T1, Heat shock factor protein 1 (Mus musculus, UniProt P38532); assay: HSF1 potentiators in luciferase reporter cells, confirmation, cell-based, NIH3T3, luminescence, dose retest (AID 435004); type: functional;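 further: stress induced by proteasome inhibitor MG132 added 30 min after compound; luciferase reporter driven by HSF1 response element in NIH3T3 cells; actives raise luminescence as potentiators of the MG132 stress response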
T1 sequence (P38532 whole entry): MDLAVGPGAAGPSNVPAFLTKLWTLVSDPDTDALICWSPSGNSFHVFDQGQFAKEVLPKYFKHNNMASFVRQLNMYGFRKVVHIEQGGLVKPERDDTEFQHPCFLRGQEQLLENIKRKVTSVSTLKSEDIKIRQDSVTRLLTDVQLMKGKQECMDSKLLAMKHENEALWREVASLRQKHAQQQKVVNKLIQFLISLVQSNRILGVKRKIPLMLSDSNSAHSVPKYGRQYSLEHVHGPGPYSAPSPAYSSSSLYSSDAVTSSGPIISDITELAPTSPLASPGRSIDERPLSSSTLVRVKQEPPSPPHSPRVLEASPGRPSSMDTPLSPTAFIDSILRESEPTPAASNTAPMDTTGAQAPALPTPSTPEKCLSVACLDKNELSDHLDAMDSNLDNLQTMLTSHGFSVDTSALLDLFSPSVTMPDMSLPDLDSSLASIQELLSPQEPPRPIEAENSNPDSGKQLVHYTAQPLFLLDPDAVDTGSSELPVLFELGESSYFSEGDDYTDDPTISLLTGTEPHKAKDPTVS

[2] = microbe, parasite or virus in culture; type: functional; details: Mycobacterium tuberculosis
cells = type: functional
Leucine aminopeptidase = target: T2, Leucine aminopeptidase (Plasmodium falciparum 3D7, UniProt Q8IL11); assay: P. falciparum M17LAP inhibitors, primary screen, biochemical, fluorogenic H-Leu-NHMec substrate, 1536-well (AID 1619); type: functional
T2 sequence (Q8IL11 whole entry): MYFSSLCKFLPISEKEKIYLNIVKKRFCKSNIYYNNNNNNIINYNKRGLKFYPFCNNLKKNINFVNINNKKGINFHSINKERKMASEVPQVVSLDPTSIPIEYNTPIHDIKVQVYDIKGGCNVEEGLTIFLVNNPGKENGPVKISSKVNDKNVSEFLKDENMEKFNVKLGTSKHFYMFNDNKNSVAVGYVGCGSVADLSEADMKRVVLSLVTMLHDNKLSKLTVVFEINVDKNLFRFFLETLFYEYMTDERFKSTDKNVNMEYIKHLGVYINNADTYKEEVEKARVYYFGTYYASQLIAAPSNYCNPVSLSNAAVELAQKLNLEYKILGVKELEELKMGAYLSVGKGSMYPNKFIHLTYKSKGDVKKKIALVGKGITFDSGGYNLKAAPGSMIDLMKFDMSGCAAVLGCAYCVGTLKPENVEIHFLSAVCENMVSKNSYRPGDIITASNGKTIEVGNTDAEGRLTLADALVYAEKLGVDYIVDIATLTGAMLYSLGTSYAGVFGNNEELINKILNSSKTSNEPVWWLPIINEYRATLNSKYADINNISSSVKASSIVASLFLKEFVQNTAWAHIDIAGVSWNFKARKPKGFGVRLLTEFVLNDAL

Large T antigen = Large T antigen (Simian virus 40, UniProt P03070); type: functional, Betapolyomavirus macacae;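 further: Confirmatory-stage PubChem screen for compounds that inhibit SV40 T antigen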
Chain of Large T antigen (P03070 whole entry): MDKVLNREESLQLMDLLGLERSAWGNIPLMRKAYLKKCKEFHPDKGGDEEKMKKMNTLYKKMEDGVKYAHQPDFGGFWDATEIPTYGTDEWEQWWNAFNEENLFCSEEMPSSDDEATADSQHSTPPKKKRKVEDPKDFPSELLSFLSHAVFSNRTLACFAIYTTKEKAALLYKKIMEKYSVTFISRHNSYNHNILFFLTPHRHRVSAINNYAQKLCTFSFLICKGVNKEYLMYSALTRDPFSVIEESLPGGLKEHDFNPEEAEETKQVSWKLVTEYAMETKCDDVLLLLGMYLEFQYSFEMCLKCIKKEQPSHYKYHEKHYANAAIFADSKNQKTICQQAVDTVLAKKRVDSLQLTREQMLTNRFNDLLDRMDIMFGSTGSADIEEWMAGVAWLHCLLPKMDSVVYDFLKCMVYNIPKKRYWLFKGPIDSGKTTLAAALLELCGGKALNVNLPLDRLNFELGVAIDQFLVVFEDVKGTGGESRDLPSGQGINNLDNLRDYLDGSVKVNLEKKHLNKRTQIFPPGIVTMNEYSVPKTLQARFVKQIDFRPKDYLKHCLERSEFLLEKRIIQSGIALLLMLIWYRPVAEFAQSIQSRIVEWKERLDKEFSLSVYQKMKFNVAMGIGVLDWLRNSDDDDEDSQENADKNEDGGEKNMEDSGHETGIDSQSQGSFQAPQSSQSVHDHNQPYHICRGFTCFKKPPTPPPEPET

[3] = growth suppression of PTEN-null colon cells, dose response, cell-based, HCT116 PTEN knockout (AID 1047); type: functional;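 further: HCT116 colon tumor cells with PTEN knocked out; cells exposed to compound for 60 hours before readout; potency for loss of cell viability measured by luminescence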
[4] = growth suppression of beta-catenin-knockout colon cells, dose response, cell-based, HCT116, human colon tumor (AID 1045); type: functional;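 further: HCT116 colon tumor cells with beta catenin knocked out; cells exposed to compound for 60 hours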
[5] = target: T3, Rac GTPase-activating protein 1 (Homo sapiens, UniProt Q9H0H5); assay: MgcRacGAP GTPase-activating activity inhibitors, confirmation, biochemical, ADP Hunter fluorescence, primary and confirmatory (AID 624330); type: functional
T3 sequence (Q9H0H5 whole entry): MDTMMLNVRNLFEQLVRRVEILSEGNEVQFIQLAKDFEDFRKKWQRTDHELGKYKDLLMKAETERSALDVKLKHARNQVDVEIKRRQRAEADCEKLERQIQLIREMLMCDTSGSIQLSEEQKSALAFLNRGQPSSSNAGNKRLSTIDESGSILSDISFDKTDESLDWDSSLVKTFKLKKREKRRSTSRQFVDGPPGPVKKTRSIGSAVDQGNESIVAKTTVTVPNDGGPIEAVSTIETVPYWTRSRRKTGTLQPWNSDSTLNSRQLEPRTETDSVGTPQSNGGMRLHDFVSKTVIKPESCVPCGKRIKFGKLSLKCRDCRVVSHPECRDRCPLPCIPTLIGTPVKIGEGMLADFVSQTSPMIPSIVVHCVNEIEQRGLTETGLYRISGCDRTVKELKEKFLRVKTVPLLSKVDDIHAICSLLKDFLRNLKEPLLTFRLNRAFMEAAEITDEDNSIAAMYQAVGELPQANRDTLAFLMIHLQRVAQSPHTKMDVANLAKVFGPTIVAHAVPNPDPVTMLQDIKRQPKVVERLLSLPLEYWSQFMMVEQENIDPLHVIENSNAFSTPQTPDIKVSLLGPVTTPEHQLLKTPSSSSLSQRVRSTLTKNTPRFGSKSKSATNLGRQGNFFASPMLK

Cytochrome P450 2D6 = Cytochrome P450 2D6 (Homo sapiens, UniProt P10635);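 further: CYP2D6 member of a cytochrome P450 panel assay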
Chain of Cytochrome P450 2D6 (P10635 whole entry): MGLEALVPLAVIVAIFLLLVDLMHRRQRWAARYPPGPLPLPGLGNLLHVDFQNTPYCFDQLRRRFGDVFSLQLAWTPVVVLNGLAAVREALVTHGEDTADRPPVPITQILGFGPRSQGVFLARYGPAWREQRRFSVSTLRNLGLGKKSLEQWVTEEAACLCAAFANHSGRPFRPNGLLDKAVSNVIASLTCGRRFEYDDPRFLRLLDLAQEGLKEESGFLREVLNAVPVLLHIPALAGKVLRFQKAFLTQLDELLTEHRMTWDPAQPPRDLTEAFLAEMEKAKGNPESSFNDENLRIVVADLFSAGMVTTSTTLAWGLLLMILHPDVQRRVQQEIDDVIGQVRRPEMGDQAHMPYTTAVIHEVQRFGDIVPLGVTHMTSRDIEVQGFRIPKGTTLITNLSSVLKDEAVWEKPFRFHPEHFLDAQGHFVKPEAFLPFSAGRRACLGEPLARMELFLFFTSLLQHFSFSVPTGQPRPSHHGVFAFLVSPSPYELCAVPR

[6] = cytotoxicity toward NIH3T3 fibroblasts, dose response, counter-screen, cell-based, ATP luminescence, mouse fibroblasts (AID 2010); type: functional;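 further: cells exposed to compound for about 90 hours before reading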
Streptococcus = assay: Group A Streptococcus viability loss, dose response, counter-screen for streptokinase expression inhibitor project, luminescence, BacTiterGlo (AID 1915); type: functional, organism-based;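 further: potency for reduction of bacterial viability or growth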
[7] = system: Streptococcus sp. 'group A'; assay: growth inhibition of control SK(-) GAS strain, dose response, counter-screen for streptokinase expression inhibitor project, luminescence, kanamycin, BacTiterGlo, confirmation (AID 1900); type: functional, organism-based
[8] = inhibitors of intracellular T. cruzi replication, confirmation, NIH3T3 host cells, beta-gal luminescence (AID 2044); type: functional, cell-based;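 further: intracellular parasites grown in NIH/3T3 mouse fibroblasts as host cells; luminescent beta-galactosidase reporter signal from transgenic T. cruzi replicating inside host cells; inhibitors lower the luminescence signal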
Streptokinase A = target: T4, Streptokinase A (Streptococcus pyogenes serotype M1, UniProt P10520); assay: S. pyogenes streptokinase expression inhibitors, potency, dose response, plasminogen activation absorbance, OD405 (AID 1914); type: functional, Streptococcus pyogenes M1 GAS;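 further: secreted streptokinase activity via plasminogen activation per viability signal from cell pellet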
T4 sequence (P10520 whole entry): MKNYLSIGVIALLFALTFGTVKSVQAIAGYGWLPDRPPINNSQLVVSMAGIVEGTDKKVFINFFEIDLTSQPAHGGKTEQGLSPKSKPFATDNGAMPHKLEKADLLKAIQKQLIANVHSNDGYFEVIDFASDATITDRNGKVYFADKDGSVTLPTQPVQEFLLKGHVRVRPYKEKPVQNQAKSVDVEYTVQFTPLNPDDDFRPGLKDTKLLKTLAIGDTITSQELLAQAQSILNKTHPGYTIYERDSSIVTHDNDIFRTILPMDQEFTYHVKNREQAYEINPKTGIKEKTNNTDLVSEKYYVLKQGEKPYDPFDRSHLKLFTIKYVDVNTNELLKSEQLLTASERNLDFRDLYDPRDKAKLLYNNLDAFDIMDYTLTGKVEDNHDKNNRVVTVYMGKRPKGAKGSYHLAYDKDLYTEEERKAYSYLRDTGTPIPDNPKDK

In the case of `CCOC(=O)N1CCC(NC(=O)c2cccs2)CC1`, the EC50 [1] is reported as > 260 µM (inactive).
In the case of `O=C(CNC(=O)c1ccco1)OCc1ccc(C(=O)Oc2ccccc2)cc1`, the CC50 [2] is reported as > 40 µM (active) and the IC50 (cells) is reported as 11.7 µM (active).
In the case of `Cc1cc(C)cc(OCC(O)CN2C(=O)NC(C)(C)C2=O)c1` (stereo unspecified), the EC50 [1] is reported as > 260 µM (inactive).
For `COc1ccc(NC(=O)CSc2nnc(NC(=O)c3ccccc3C(=O)O)s2)cc1`, the IC50 (Leucine aminopeptidase) was 6.27 µM (active).
With `Fc1ccc(CN2CCN(c3ncnc4scc(-c5ccccc5)c34)CC2)cc1` the EC50 [1] was > 260 µM (inactive).
For `Cc1cccc(N(CC(=O)Nc2ccccc2-c2ccccc2)S(=O)(=O)c2ccccc2)c1C`, the EC50 [1] was > 260 µM (inactive).
For `CN(C)c1ccc(NC(=O)CN2CCC(C(=O)c3ccc(F)cc3)CC2)cc1`, the IC50 (Large T antigen) was 10.4 µM (active).
For `COc1ccc(NC2CCCN(C(=O)c3ccc(OC)o3)C2)cc1` (stereo unspecified), the IC50 (Large T antigen) was 16.7 µM (active).
With `Cc1ccc2c[nH]nc2c1N` the IC50 (Large T antigen) was 15.4 µM (active).
With `Cc1ccc(P(=O)(CSC(=N)N)c2ccc(C)cc2)cc1` the EC50 [3] was 30.7 µM (active) and the EC50 [4] was 25.4 µM (active).
With `Cc1ccc(S(=O)(=O)N2CCOCC2)cc1NC(=O)CN1CCN(c2ccc(O)cc2)CC1` the IC50 (Large T antigen) was 5.03 µM (active).
For `COc1ccccc1C(=O)NNC(=O)C(=O)NCc1ccccc1`, the CC50 [2] was > 40 µM (active).
With `Cc1nc(CN2CCN(Cc3nc(C(c4ccccc4)c4ccccc4)no3)CC2)cs1` the EC50 [1] was > 260 µM (inactive).
With `S=C1NC(c2ccccc2)N2C(=S)NC(c3ccccc3)N12` (stereo unspecified) the IC50 (Leucine aminopeptidase) was 20.9 µM (active).
With `COc1cc2c3c(c1OC)C1(C=CC(=O)C=C1)CC3N(C(=O)c1ccccc1)CC2` (stereo unspecified) the EC50 [1] was > 260 µM (inactive).
With `CS(=O)(=O)Cc1nc2ccccc2oc1=O` the IC50 [5] was 73.6 µM (active) and the IC50 (cells) was 2.93 µM (active).
With `O=C1CC(SC(=Nc2ccccc2)Nc2ccccc2)C(=O)N1c1cccc(Cl)c1` (stereo unspecified) the AC50 (Cytochrome P450 2D6) was 10 µM (inconclusive), the EC50 [3] was 24.5 µM (active) and the EC50 [4] was 33.2 µM (active).
For `CCOC(=O)c1cnn2cc(-c3[nH]ncc3[N+](=O)[O-])cnc12`, the IC50 (Leucine aminopeptidase) was 5.26 µM (active).
In the case of `CCCCn1c(=N)n(CC(O)COc2ccc(C)cc2)c2ccccc21` (stereo unspecified), the EC50 [3] is reported as 6.43 µM (active) and the EC50 [4] is reported as 6.36 µM (active).
For `CN(C(=O)c1ccccc1C(=O)OCC(=O)NCc1cccs1)C1CCCCC1`, the IC50 (Large T antigen) was > 100 µM (active).
With `COc1ccc(NC(=O)Nc2ccc3oc(C)nc3c2)cc1` the IC50 (Leucine aminopeptidase) was 14.8 µM (active).
For `CN1C(=O)C(O)(CC(=O)c2ccc(F)cc2)c2cc(Br)ccc21` (stereo unspecified), the EC50 [3] was 19.1 µM (active) and the EC50 [4] was 15.7 µM (active).
With `CCCCn1nnnc1SCC(=O)Nc1ccc(N(C)C)cc1` the IC50 (Large T antigen) was 11.2 µM (active).
For `CCOC(=O)CN1C=C(c2ccc3ccccc3n2)C(C[N+](=O)[O-])c2ccccc21` (stereo unspecified), the EC50 [1] was 70.3 µM (active).
In the case of `CCOc1ccc(C(=O)N2CCN(S(=O)(=O)c3cccs3)CC2)c(OCC)c1`, the EC50 [1] is reported as > 260 µM (inactive).
In the case of `O=C(N/N=C/c1ccc(Br)s1)c1cccs1`, the CC50 [2] is reported as 33.3 µM (active).
For `O=C(N/N=C/c1ccc([N+](=O)[O-])o1)c1cc(-c2cccc(Br)c2)nc2ccccc12`, the EC50 [6] was > 60 µM (not active), the EC50 (Streptococcus) was 0.796 µM (active) and the EC50 [7] was 0.398 µM (active). The EC50 [3] was 7.92 µM (active), the EC50 [4] was 7.86 µM (active) and the EC50 [8] was 0.128 µM (active).
In the case of `COc1cccc(/C=N/NC(=S)NC2CC3CC2C2C=CCC32)c1O` (stereo unspecified), the EC50 [1] is reported as > 260 µM (inactive).
For `Cc1cc(N/N=C2/CCCc3ccccc32)nc2ccccc12`, the CC50 [2] was > 40 µM (active).
In the case of `N/C(S)=N/c1c(Cl)cccc1Cl`, the IC50 (Large T antigen) is reported as 77.4 µM (active).
For `CCOc1cc(/C=N/n2cnnc2)ccc1O`, the IC50 (Large T antigen) was 13.6 µM (active) and the IC50 [5] was 34.3 µM (active).
With `COc1cccc(/C=N/NC(=O)CC2C(=O)NN=C2C)c1OC` (stereo unspecified) the IC50 (Leucine aminopeptidase) was 23.5 µM (active).
With `Cc1nn(-c2ccccc2)c(C)c1/C=N/NC(=O)c1cc(-c2cccc3ccccc23)[nH]n1` the EC50 (Streptococcus) was 89.4 µM (active), the EC50 [7] was 18.6 µM (active) and the EC50 (Streptokinase A) was > 150 µM (not active). The CC50 [2] was 30.5 µM (active).
In the case of `O=C(N/N=C/c1ccc(F)c(F)c1)c1cc2c(s1)-c1ccccc1CC2`, the EC50 [3] is reported as 22.4 µM (active) and the EC50 [4] is reported as 21.2 µM (active).

— ChEMBL document CHEMBL1201862, “PubChem BioAssay data set” (2004)
